We go through eleven compounds from ChEMBL document CHEMBL4665629, “An optimised series of substituted N-phenylpyrrolamides as DNA gyrase B inhibitors” (Eur J Med Chem, 2019).

Converted amounts (≈) assume the structure as drawn.

One assay relates to Pseudomonas aeruginosa. The assay can be described thus: Antibacterial activity against Pseudomonas aeruginosa ATCC 27853 assessed as bacterial growth inhibition at 50 uM incubated for 24 hrs by CLSI protocol based broth microdilution assay relative to control. It is filed as functional.
Assay [1] deals with Enterococcus faecium. The assay can be described thus: Antibacterial activity against Enterococcus faecium ATCC 35667 assessed as bacterial growth inhibition at 50 uM incubated for 24 hrs by CLSI protocol based broth microdilution assay relative to control. The class given is functional. (In general: Broth dilution looks for growth in wells or tubes with falling amounts of substance.)

Assay [2] relates to Escherichia coli. The assay can be described thus: Antibacterial activity against Escherichia coli ATCC 25922 assessed as bacterial growth inhibition at 50 uM incubated for 24 hrs by CLSI protocol based broth microdilution assay relative to control. It is filed as functional.
For the next assay, the system named is Acinetobacter baumannii. Description: Antibacterial activity against Acinetobacter baumannii ATCC 19606 assessed as bacterial growth inhibition at 50 uM incubated for 24 hrs by CLSI protocol based broth microdilution assay relative to control. The class given is functional. To be noted: ATCC 19606 = CIP 70.34 = JCM 6841.
The subject of assay [3] is Escherichia coli. Description: Antibacterial activity against outer membrane impaired Escherichia coli JD17464 harboring lpxC mutant assessed as bacterial growth inhibition at 50 uM incubated for 24 hrs by CLSI protocol based broth microdilution assay relative to control. It is filed as functional.
A further assay has as its system Klebsiella aerogenes. The assay can be described thus: Antibacterial activity against Enterobacter aerogenes ATCC 13408 assessed as bacterial growth inhibition at 50 uM incubated for 24 hrs by CLSI protocol based broth microdilution assay relative to control. It is filed as functional.
The subject of assay [4] is Enterococcus faecium. The assay can be described thus: Antibacterial activity against Enterococcus faecium ATCC 35667 assessed as minimum inhibitory concentration required for >=90% inhibition of bacterial growth by CLSI protocol based broth microdilution assay. It is filed as functional.
The test system of the next assay is Klebsiella pneumoniae. The assay can be described thus: Antibacterial activity against Klebsiella pneumoniae ATCC 700603 assessed as bacterial growth inhibition at 50 uM incubated for 24 hrs by CLSI protocol based broth microdilution assay relative to control. It is filed as functional.
Assay [5] addresses DNA gyrase (Escherichia coli) (UniProt P0AES6+P0AES4). The assay can be described thus: Inhibition of Escherichia coli DNA gyrase assessed as residual activity at 1 uM using biotinylated oligonucleotide as substrate incubated for 30 mins in presence of ATP by fluorescence-based microplate reader assay relative to control. The class given is protein-complex assay.
The subject of assay [6] is Escherichia coli. The assay can be described thus: Antibacterial activity against efflux pump d effect ive Escherichia coli JW5503 harbouring tolC mutant assessed as bacterial growth inhibition at 50 uM incubated for 24 hrs by CLSI protocol based broth microdilution assay relative to control. It is filed as functional.
A further assay deals with Staphylococcus aureus. Description: Antibacterial activity against Staphylococcus aureus ATCC 29213 assessed as bacterial growth inhibition at 50 uM incubated for 24 hrs by CLSI protocol based broth microdilution assay relative to control. It is filed as functional.
Another assay concerns the target Topoisomerase IV (Staphylococcus aureus, UniProt P0C1S7+P0C1U9). The assay can be described thus: Inhibition of Staphylococcus aureus DNA topoisomerase 4 using biotinylated oligonucleotide as substrate incubated for 30 mins in presence of ATP by fluorescence-based microplate reader assay. The class given is protein-complex assay.
Assay [7] concerns the target DNA gyrase (Staphylococcus aureus, UniProt P0A0K8+P20831). The assay can be described thus: Inhibition of Staphylococcus aureus DNA gyrase using biotinylated oligonucleotide as substrate incubated for 30 mins in presence of ATP by fluorescence-based microplate reader assay. It is filed as protein-complex assay.
Assay [8] addresses DNA gyrase (Escherichia coli, UniProt P0AES4+P0AES6). Description: Inhibition of Escherichia coli DNA gyrase using biotinylated oligonucleotide as substrate incubated for 30 mins in presence of ATP by fluorescence-based microplate reader assay. The class given is protein-complex assay.
Assay [9] in a line: Inhibition of Escherichia coli DNA topoisomerase 4 using biotinylated oligonucleotide as substrate incubated for 30 mins in presence of ATP by fluorescence-based microplate reader assay.
The target of assay [10] is DNA gyrase (Staphylococcus aureus) (UniProt P0A0K8+P20831). The assay can be described thus: Inhibition of Staphylococcus aureus DNA gyrase assessed as residual activity at 1 uM using biotinylated oligonucleotide as substrate incubated for 30 mins in presence of ATP by fluorescence-based microplate reader assay relative to control. It is filed as protein-complex assay.
Chain of DNA gyrase (Staphylococcus aureus) (P0A0K8 2-644 limits assumed): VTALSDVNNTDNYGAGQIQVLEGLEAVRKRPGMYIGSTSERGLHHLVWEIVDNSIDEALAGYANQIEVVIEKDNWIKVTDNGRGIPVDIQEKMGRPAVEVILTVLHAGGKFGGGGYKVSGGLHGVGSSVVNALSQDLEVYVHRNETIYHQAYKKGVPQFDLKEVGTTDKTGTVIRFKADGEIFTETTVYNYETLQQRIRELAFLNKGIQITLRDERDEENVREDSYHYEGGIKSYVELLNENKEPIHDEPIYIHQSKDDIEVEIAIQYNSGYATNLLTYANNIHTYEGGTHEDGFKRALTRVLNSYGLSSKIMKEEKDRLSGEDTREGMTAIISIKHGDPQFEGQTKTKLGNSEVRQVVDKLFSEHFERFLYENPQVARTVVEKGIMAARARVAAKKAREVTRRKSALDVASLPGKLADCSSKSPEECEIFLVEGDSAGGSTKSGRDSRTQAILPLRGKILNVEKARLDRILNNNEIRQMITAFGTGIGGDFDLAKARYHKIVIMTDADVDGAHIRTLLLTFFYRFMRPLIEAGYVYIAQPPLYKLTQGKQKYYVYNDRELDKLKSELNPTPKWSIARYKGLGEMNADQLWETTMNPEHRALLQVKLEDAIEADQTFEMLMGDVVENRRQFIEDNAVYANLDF
Chain of DNA gyrase (Staphylococcus aureus) (P20831 whole entry partner): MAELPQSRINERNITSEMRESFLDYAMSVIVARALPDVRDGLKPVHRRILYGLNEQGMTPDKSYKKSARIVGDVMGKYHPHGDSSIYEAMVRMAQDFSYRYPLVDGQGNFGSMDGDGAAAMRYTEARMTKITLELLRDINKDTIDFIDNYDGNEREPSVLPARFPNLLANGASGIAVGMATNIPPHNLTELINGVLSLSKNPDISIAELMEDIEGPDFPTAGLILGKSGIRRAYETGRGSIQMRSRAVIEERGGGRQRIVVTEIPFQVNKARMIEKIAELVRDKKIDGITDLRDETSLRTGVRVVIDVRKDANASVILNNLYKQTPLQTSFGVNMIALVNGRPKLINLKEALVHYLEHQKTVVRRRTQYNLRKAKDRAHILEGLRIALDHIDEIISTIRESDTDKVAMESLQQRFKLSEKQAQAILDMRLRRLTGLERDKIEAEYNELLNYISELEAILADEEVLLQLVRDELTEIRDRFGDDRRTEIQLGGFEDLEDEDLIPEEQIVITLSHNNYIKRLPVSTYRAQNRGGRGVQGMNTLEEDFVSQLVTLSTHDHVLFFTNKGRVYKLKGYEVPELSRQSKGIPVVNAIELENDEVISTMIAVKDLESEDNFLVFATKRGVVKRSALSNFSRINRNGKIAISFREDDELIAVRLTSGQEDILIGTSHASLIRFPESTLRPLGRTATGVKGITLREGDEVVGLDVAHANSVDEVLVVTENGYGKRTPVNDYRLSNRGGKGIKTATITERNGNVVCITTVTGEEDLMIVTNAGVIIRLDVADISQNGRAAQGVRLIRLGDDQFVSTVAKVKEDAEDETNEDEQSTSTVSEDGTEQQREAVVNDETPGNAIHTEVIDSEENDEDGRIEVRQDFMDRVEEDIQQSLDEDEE

Assay [11] concerns Enterococcus faecalis. Description: Antibacterial activity against Enterococcus faecalis ATCC 29212 assessed as bacterial growth inhibition at 50 uM incubated for 24 hrs by CLSI protocol based broth microdilution assay relative to control. The class given is functional.
In assay [12] the test system is Enterococcus faecalis. Description: Antibacterial activity against Enterococcus faecalis ATCC 29212 assessed as minimum inhibitory concentration required for >=90% inhibition of bacterial growth by CLSI protocol based broth microdilution assay. The class given is functional.
Assay [13] concerns the target Topoisomerase IV (Staphylococcus aureus) (UniProt P0C1U9+P0C1S7). The assay can be described thus: Inhibition of Staphylococcus aureus DNA topoisomerase 4 assessed as residual activity at 1 uM using biotinylated oligonucleotide as substrate incubated for 30 mins in presence of ATP by fluorescence-based microplate reader assay relative to control. The class given is protein-complex assay.

Assay [14] can be described thus: Inhibition of Escherichia coli DNA topoisomerase 4 assessed as residual activity at 1 uM using biotinylated oligonucleotide as substrate incubated for 30 mins in presence of ATP by fluorescence-based microplate reader assay relative to control.
For assay [15], the system named is Escherichia coli. The assay can be described thus: Antibacterial activity against efflux pump d effect ive Escherichia coli JW5503 harbouring tolC mutant assessed as minimum inhibitory concentration required for >=90% inhibition of bacterial growth by CLSI protocol based broth microdilution assay. It is filed as functional.

Chain of Topoisomerase IV (P0C1U9 whole entry): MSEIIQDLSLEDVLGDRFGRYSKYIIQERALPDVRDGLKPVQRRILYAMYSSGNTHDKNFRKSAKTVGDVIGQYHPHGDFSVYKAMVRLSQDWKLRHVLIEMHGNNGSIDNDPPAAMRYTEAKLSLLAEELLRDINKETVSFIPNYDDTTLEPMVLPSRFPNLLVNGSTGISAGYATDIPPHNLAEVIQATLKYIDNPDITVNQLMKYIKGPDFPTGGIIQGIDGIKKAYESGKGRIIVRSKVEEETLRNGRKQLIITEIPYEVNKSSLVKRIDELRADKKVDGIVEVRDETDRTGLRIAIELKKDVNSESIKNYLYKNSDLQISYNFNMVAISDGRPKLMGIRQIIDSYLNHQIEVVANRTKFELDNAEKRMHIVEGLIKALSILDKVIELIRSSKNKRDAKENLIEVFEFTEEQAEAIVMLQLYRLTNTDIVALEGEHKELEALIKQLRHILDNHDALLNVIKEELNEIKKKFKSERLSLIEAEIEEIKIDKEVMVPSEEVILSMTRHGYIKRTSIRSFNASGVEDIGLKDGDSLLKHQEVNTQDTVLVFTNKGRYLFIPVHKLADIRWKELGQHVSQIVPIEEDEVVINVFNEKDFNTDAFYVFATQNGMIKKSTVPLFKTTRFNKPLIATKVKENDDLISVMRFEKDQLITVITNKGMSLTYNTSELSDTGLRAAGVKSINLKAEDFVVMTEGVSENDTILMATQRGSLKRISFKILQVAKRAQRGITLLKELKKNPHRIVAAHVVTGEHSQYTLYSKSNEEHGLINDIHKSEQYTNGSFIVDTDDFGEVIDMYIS
Chain of Topoisomerase IV (P0C1S7 whole entry): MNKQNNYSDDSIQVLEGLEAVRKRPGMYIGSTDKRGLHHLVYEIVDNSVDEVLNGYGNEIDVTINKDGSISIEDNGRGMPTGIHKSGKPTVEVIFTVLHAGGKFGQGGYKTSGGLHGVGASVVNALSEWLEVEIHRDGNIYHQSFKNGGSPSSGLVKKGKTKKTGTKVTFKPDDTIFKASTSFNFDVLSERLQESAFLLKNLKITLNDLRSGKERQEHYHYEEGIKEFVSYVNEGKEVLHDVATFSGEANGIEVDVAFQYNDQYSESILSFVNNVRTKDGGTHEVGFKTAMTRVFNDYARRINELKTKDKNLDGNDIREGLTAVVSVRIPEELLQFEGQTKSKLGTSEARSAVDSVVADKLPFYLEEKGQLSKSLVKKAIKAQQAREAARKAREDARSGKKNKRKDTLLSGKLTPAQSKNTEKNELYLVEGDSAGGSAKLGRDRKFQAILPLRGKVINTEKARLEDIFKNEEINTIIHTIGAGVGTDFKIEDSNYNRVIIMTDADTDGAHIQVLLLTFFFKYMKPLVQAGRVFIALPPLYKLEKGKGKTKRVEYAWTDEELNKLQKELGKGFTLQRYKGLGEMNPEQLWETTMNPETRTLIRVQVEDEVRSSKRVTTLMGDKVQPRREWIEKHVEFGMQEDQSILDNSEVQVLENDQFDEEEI
Chain of DNA gyrase (Staphylococcus aureus, UniProt P0A0K8+P20831) (P0A0K8 whole entry): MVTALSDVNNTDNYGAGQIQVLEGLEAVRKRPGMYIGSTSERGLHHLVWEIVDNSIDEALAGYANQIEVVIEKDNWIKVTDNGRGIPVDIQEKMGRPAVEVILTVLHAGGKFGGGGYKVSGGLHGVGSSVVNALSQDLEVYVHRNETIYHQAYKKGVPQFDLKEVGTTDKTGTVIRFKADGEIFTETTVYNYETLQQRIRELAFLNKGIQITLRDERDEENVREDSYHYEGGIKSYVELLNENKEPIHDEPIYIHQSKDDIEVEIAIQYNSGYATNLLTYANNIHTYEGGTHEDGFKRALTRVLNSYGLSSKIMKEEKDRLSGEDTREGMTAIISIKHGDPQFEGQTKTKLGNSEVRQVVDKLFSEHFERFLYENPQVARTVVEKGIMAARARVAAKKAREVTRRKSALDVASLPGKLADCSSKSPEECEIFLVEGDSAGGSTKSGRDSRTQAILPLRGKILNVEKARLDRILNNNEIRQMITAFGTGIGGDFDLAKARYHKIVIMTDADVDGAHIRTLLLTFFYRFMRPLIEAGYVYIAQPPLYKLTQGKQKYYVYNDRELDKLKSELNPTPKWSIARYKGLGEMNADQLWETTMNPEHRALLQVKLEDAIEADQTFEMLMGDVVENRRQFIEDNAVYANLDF
Chain of DNA gyrase (Staphylococcus aureus, UniProt P0A0K8+P20831) (P20831 whole entry): as the sequence (P20831 whole entry partner) above

Regarding `COC(=O)[C@H](C)NC(=O)c1ccc(NC(=O)c2[nH]c(C)c(Cl)c2Cl)c(OC2CCN(C(=O)OC(C)(C)C)CC2)c1`, the inhibition (as a rule, the relative decrease from the control value, in per cent) at 50 µM in the assay with Pseudomonas aeruginosa was determined as 27%; with Enterococcus faecium [1], 73%; in the assay on Escherichia coli [2], 18%; in the assay with Acinetobacter baumannii, 23%; in the assay on Escherichia coli [3], 43%; in the assay on Klebsiella aerogenes it was 14%. The inhibition at 50 µM was determined as 3% in the assay on Klebsiella pneumoniae, 61% in the assay with Escherichia coli [6] and 35% with Staphylococcus aureus. In addition, the MIC (as a rule, the lowest concentration found to suppress growth) with Enterococcus faecium [4] is above 25 µM. The Activity in assay [5] turned out to be 83%.
Take `Cc1[nH]c(C(=O)Nc2ccc(C(=O)NCC(=O)O)cc2OC2CCN(C(=O)OC(C)(C)C)CC2)c(Cl)c1Cl`: the inhibition at 50 µM in the assay with Pseudomonas aeruginosa was -3%; with Enterococcus faecium [1], -1%; with Escherichia coli [2], 9%; in the assay with Acinetobacter baumannii, -12%; in the assay on Escherichia coli [3], -2%; in the assay on Klebsiella aerogenes, -8%. In addition, the inhibition at 50 µM is -9% in the assay with Klebsiella pneumoniae, -5% in the assay with Escherichia coli [6] and -10% in the assay with Staphylococcus aureus. Further, the IC50 (usually the concentration that inhibits the measured activity by half) at Topoisomerase IV was determined as 7400 nM; on DNA gyrase [7], 1010 nM; on DNA gyrase [8], 86 nM; in [9], 10 µM.
For the compound `CC(=O)NC[C@H]1CN(c2ccc(N3CCOCC3)c(F)c2)C(=O)O1` [LINEZOLID], the MIC in the assay on Enterococcus faecium [4] was found to be 11.9 µM (≈ 4 µg/mL).
For `Cc1[nH]c(C(=O)Nc2ccc(C(=O)N[C@H](C)C(=O)O)cc2OC2CCNCC2)c(Cl)c1Cl`, the inhibition at 50 µM in the assay with Pseudomonas aeruginosa is -3%; with Enterococcus faecium [1], 3%; in the assay with Escherichia coli [2], 1%; with Acinetobacter baumannii it was 5%; in the assay with Escherichia coli [3], 14%; in the assay with Klebsiella aerogenes it was -3%. Moreover, the inhibition at 50 µM in the assay with Klebsiella pneumoniae was 5%; in the assay with Escherichia coli [6] it was 35%; in the assay on Staphylococcus aureus it was -1%. For the same compound, the half-maximal inhibitory concentration (IC50) is 960 nM at Topoisomerase IV, 6.9 nM on DNA gyrase [8] and 15 µM in assay [9]. In addition, the Activity in assay [10] was 31%.
Take `Cc1[nH]c(C(=O)Nc2ccc(C(=O)N[C@H](C)C(=O)NN)cc2OC(C)C)c(Cl)c1Cl`: the inhibition at 50 µM in the assay with Enterococcus faecalis [11] was 85%; with Pseudomonas aeruginosa, -2%; in the assay with Enterococcus faecium [1], 49%; with Escherichia coli [2] it was 21%; with Acinetobacter baumannii it was 25%; with Escherichia coli [3] it was 31%. The inhibition at 50 µM is 16% in the assay with Klebsiella aerogenes, 14% with Klebsiella pneumoniae, 38% with Escherichia coli [6] and 46% with Staphylococcus aureus. In the assay on Enterococcus faecalis [12], the minimum inhibitory concentration (MIC) is 12.5 µM (≈ 5.7 µg/mL). In addition, the Activity in assay [5] worked out at 89%.
As to `COC(=O)CNC(=O)c1ccc(NC(=O)c2[nH]c(C)c(Cl)c2Cl)c(O[C@H]2CCNC2)c1`, the inhibition at 50 µM is 4% with Pseudomonas aeruginosa; 13% in the assay with Enterococcus faecium [1]; 4% with Escherichia coli [2]; 2% in the assay with Acinetobacter baumannii; 26% with Escherichia coli [3]; -3% in the assay on Klebsiella aerogenes. Also, the inhibition at 50 µM with Klebsiella pneumoniae is -5%; in the assay on Escherichia coli [6] it was 88%; in the assay with Staphylococcus aureus it was 5%. In addition, the figures for the Activity in assay [13] and in assay [14] were 94% and 90%, respectively. The half-maximal inhibitory concentration (IC50) at DNA gyrase [7] is 950 nM; on DNA gyrase [8] it was 74 nM. Also, the minimum inhibitory concentration (MIC) with Escherichia coli [15] came out at 25 µM (≈ 11.7 µg/mL).
For the compound `Cc1[nH]c(C(=O)Nc2ccc(C(=O)N[C@@H](C)C(=O)O)cc2OC2CCNCC2)c(Cl)c1Cl`, the inhibition at 50 µM was 9% with Pseudomonas aeruginosa; -10% with Enterococcus faecium [1]; 7% with Escherichia coli [2]; 2% in the assay with Acinetobacter baumannii; 12% with Escherichia coli [3]; -2% with Klebsiella aerogenes. Also, the results for the inhibition at 50 µM in the assay with Klebsiella pneumoniae, with Escherichia coli [6] and in the assay with Staphylococcus aureus were 5%, 9% and -11%, respectively. Besides, the IC50 was found to be 690 nM on Topoisomerase IV, 99 nM on DNA gyrase [7], 9.9 nM on DNA gyrase [8] and 9.1 µM in [9].
On to `Cc1[nH]c(C(=O)Nc2ccc(C(=O)N[C@@H](C)C(=O)O)cc2OC2CCN(C(=O)OC(C)(C)C)CC2)c(Cl)c1Cl`, for which the inhibition at 50 µM was 19% in the assay with Pseudomonas aeruginosa; 67% in the assay with Enterococcus faecium [1]; 2% with Escherichia coli [2]; 0% in the assay with Acinetobacter baumannii; 19% in the assay on Escherichia coli [3]; -5% with Klebsiella aerogenes. Besides, the inhibition at 50 µM is -19% with Klebsiella pneumoniae, 1% in the assay on Escherichia coli [6] and -23% with Staphylococcus aureus. Further, the half-maximal inhibitory concentration (IC50) turned out to be 830 nM on Topoisomerase IV and 80 nM on DNA gyrase [8]. In addition, the values for the Activity in [14] and in assay [10] were 88% and 26%, respectively. The MIC with Enterococcus faecium [4] was above 25 µM.
On to `Cc1[nH]c(C(=O)Nc2ccc(C(=O)NCC#N)cc2)c(Cl)c1Cl`, for which the inhibition at 50 µM with Enterococcus faecalis [11] is 92%; in the assay on Pseudomonas aeruginosa it was 30%; in the assay on Enterococcus faecium [1], -17%; with Escherichia coli [2], 0%; in the assay with Acinetobacter baumannii it was 0%; with Escherichia coli [3], -8%. In addition, the inhibition at 50 µM in the assay with Klebsiella aerogenes is 1%; in the assay with Klebsiella pneumoniae, 4%; with Escherichia coli [6] it was 102%; with Staphylococcus aureus it was 4%. Moreover, the concentration for half-maximal inhibition (IC50) on DNA gyrase [8] was determined as 410 nM. Also, the MIC in the assay on Enterococcus faecalis [12] worked out at 25 µM (≈ 8.78 µg/mL); in the assay on Escherichia coli [15] it was 12.5 µM (≈ 4.39 µg/mL).
On to `Cc1[nH]c(C(=O)Nc2ccc(C(=O)NCC(=O)O)cc2OC2CCNCC2)c(Cl)c1Cl`, for which the inhibition at 50 µM in the assay with Pseudomonas aeruginosa is 15%; with Enterococcus faecium [1], -1%; in the assay with Escherichia coli [2] it was -2%; in the assay with Acinetobacter baumannii it was 1%; with Escherichia coli [3] it was 9%; in the assay on Klebsiella aerogenes, 4%. Moreover, the inhibition at 50 µM in the assay with Klebsiella pneumoniae amounted to 5%; in the assay on Escherichia coli [6], 37%; with Staphylococcus aureus, 3%. Moreover, the IC50 on Topoisomerase IV worked out at 3700 nM; on DNA gyrase [7], 960 nM; at DNA gyrase [8], 17 nM; in assay [9], 7.2 µM.
As to `COC(=O)[C@H](C)NC(=O)c1ccc(NC(=O)c2[nH]c(C)c(Cl)c2Cl)c(OC2CCNCC2)c1`, the inhibition at 50 µM is -1% with Pseudomonas aeruginosa; 7% in the assay with Enterococcus faecium [1]; 14% in the assay on Escherichia coli [2]; 21% in the assay on Acinetobacter baumannii; 24% in the assay on Escherichia coli [3]; -4% in the assay on Klebsiella aerogenes. In addition, the inhibition at 50 µM came out at 0% in the assay with Klebsiella pneumoniae, 99% in the assay with Escherichia coli [6] and 27% in the assay with Staphylococcus aureus. The half-inhibitory concentration (IC50) amounted to 3700 nM at Topoisomerase IV, 1600 nM at DNA gyrase [7], 40 nM on DNA gyrase [8] and 18 µM in assay [9]. In addition, the MIC in the assay with Escherichia coli [15] worked out at 6.25 µM (≈ 3.11 µg/mL).
